Common to all, as to assay type: cell-based
For assay [1], the target named is T1, human cloned CHRM5 receptor (Homo sapiens, UniProt P08912).
T1 construct: expressed in transfected cells; host or cells: CHO (M5_CHO)
T1 sequence (P08912 1-532): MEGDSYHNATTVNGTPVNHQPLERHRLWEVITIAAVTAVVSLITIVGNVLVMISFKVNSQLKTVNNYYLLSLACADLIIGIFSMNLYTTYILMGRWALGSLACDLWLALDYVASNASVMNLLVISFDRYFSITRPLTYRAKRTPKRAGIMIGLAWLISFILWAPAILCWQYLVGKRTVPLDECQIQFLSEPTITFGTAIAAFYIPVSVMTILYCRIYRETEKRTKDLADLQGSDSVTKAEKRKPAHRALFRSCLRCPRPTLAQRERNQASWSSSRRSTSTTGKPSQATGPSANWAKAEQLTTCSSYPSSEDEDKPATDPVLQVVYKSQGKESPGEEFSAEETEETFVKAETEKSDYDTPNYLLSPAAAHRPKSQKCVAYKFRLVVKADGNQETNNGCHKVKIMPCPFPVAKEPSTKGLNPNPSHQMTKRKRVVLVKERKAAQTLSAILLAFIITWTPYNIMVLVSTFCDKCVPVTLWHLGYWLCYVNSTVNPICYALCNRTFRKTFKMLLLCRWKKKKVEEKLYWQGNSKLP
The assay is described as follows: CHRM5 Ca++ Flux Assay (M5_CHO cells, agonist mode). Particulars: for M5 FDSS PA % / Emax: Percent Activity (PA) measured to EC100 of Carbachol; for EC50: agonist mode, geometric mean if tested more than once, read-out: M5 FDSS EC50; for Emax: read-out: M5 FDSS PA %. Put shortly:
(§1)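 Agonist-mode calcium mobilisation: compounds, 11 concentrations in triplicate, applied to stable M3_CHO or M5_CHO cells loaded with Ca++ dye, fluorescence followed 3 min. Efficacy expressed against carbachol EC100; EC curves by four-parameter nonlinear regression, geometric mean across independent runs.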

For assay [2], the target named is T2, human cloned CHRM3 receptor (Homo sapiens, UniProt P20309).
T2 construct: expressed in transfected cells; host or cells: CHO-K1 (M3_CHO)
The assay is described as follows: CHRM3 Ca++ Flux Assay (M3_CHO cells, agonist mode). Particulars: for M3 FDSS PA % / Emax: Percent Activity (PA) measured to EC100 of Carbachol; for EC50: agonist mode, geometric mean if tested more than once, read-out: M3 FDSS EC50; for Emax: read-out: M3 FDSS PA %. Put shortly:
as §1

Assay [3] has as its target T3, human cloned CHRM2 receptor (Homo sapiens, UniProt P08172).
T3 construct: expressed in transfected cells; host or cells: CHO-K1 (M2_CHO)
T3 sequence (P08172 1-466): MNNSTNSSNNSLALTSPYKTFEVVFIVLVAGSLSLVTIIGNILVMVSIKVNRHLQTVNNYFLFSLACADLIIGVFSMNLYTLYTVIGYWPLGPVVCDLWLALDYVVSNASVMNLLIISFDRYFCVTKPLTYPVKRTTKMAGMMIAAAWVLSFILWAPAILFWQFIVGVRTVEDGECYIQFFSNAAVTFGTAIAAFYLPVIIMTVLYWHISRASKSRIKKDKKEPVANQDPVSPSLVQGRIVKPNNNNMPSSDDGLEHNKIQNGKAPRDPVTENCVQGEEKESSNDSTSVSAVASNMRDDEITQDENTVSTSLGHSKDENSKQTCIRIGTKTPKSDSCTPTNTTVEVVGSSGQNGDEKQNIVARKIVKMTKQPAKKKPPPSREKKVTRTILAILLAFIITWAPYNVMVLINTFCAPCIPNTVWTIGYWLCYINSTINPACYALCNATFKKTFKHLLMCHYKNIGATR
The assay is described as follows: CHRM2 Ca++ Flux Assay (M2_CHO cells, agonist mode). Particulars: M2 CHO cells; for EC50: agonist mode, geometric mean if tested more than once, read-out: M2 FDSS EC50; for M2 FDSS PA % / Emax: Percent Activity (PA) measured to EC100 of Carbachol; for Emax: read-out: M2 FDSS PA %. The essentials:
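Agonist activity was expressed as percent of the carbachol EC100 response, fitted by four-parameter regression on triplicate wells, with geometric means across repeat runs. Calcium traces over 3 minutes came from dye-loaded M2_CHO cells (12K/well) pre-incubated 60 min in Ca/Mg-free HBSS with 20 mM HEPES, 2.5 mM probenecid and 20 μM ATP.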

By EC50 is commonly meant the concentration giving half of the maximal effect.

Molecules are shown by their SMILES. A value given as a limit tells only on which side of the number the result lay.

T2 sequence (P20309 whole entry): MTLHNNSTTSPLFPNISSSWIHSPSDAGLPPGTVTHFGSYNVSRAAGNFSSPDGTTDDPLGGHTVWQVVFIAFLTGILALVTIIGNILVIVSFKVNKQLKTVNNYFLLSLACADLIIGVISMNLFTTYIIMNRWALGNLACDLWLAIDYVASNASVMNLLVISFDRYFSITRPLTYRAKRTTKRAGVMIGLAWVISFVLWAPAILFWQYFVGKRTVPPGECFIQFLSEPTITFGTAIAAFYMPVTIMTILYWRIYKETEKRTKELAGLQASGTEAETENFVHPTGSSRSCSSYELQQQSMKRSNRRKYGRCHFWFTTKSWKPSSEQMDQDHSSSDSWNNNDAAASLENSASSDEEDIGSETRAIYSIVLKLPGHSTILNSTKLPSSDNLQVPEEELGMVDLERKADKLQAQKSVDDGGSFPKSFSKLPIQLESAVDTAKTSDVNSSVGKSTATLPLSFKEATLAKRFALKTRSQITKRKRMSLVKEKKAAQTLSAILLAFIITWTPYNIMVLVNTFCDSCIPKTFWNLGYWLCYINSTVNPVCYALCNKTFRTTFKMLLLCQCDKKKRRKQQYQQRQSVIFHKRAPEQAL

Turning to `C[C@H](Oc1ccc(F)cc1C1CCN([C@@H]2COC3(C2)CN(c2nnco2)C3)CC1)C1CCOCC1` (single isomer, unassigned) [Example 2Y, (S)-7-(4-(5-fluoro-2-((S)-1-(tetrahydro-2H-pyran-4-yl)ethoxy)phenyl)piperidin-1-yl)-2-(1,3,4-oxadiazol-2-yl)-5-oxa-2-azaspiro[3.4]octane or (S)-7-(4-(5-fluoro-2-((R)-1-(tetrahydro-2H-pyran-4-yl)ethoxy)phenyl)piperidin-1-yl)-2-(1,3,4-oxadiazol-2-yl)-5-oxa-2-azaspiro[3.4]octane], in assay [1], the “M5 FDSS PA %” value was 13% and the EC50 is 9.46 µM. Moreover, in assay [2], the “M3 FDSS PA %” value is 0% and the EC50 is above 25 µM. Besides, in assay [3], the EC50 amounted to 3.33 µM and the “M2 FDSS PA %” value was 35%.
With `c1ccc(C2CCN([C@@H]3COC4(C3)CN(c3ncco3)C4)CC2)c(O[C@H]2CCOC2)c1` [Example 4H, (S)-2-(oxazol-2-yl)-7-(4-(2-(((S)-tetrahydrofuran-3-yl)oxy)phenyl)piperidin-1-yl)-5-oxa-2-azaspiro[3.4]octane], the results for the Emax in assay [1], in assay [2] and in assay [3] were 0%, 0% and 20%, respectively. Moreover, the half-maximal effective concentration (EC50) in assay [1], in assay [2] and in assay [3] was above 25 µM throughout.
Regarding `Fc1cc(OC2COC2)c(C2CCN([C@@H]3COC4(C3)CN(c3ncco3)C4)CC2)cc1F` [Example 4Q, (S)-7-(4-(4,5-difluoro-2-(oxetan-3-yloxy)phenyl)piperidin-1-yl)-2-(oxazol-2-yl)-5-oxa-2-azaspiro[3.4]octane], the figures for the Emax in assay [1], in assay [2] and in assay [3] were 0%, 0% and 13%, respectively. The EC50 in assay [1] was above 25 µM; in assay [2], above 25 µM; in assay [3], 1.88 µM.
In the case of `Fc1ccc(OC[C@H]2CCO2)c(C2CCN([C@@H]3COC4(C3)CN(c3nncs3)C4)CC2)c1.O=C(O)C(F)(F)F` (single isomer, unassigned) [Example 2D, (S)-7-(4-(5-fluoro-2-(((R)-oxetan-2-yl)methoxy)phenyl)piperidin-1-yl)-2-(1,3,4-thiadiazol-2-yl)-5-oxa-2-azaspiro[3.4]octane trifluoroacetate or (S)-7-(4-(5-fluoro-2-(((S)-oxetan-2-yl)methoxy)phenyl)piperidin-1-yl)-2-(1,3,4-thiadiazol-2-yl)-5-oxa-2-azaspiro[3.4]octane trifluoroacetate], in assay [1], the “M5 FDSS PA %” value is recorded as 0% and the EC50 is above 25 µM. Also, in assay [2], the “M3 FDSS PA %” value is reported as 0% and the EC50 was above 25 µM. In addition, in assay [3], the EC50 came to 0.446 µM and the “M2 FDSS PA %” value came to 50%.
`Fc1ccc([C@H]2CCOC2)c(C2CCN([C@@H]3COC4(C3)CN(c3nnco3)C4)CC2)c1` (single isomer, unassigned) [Example 3E, (S)-7-(4-(5-fluoro-2-((R)-tetrahydrofuran-3-yl)phenyl)piperidin-1-yl)-2-(1,3,4-oxadiazol-2-yl)-5-oxa-2-azaspiro[3.4]octane or (S)-7-(4-(5-fluoro-2-((S)-tetrahydrofuran-3-yl)phenyl)piperidin-1-yl)-2-(1,3,4-oxadiazol-2-yl)-5-oxa-2-azaspiro[3.4]octane]: in assay [1], the “M5 FDSS PA %” value was 0% and the EC50 is above 25 µM. In addition, in assay [2], the “M3 FDSS PA %” value came out at 0% and the EC50 was above 25 µM. Also, in assay [3], the EC50 was determined as 0.404 µM and the “M2 FDSS PA %” value is reported as 60%.
Turning to `Fc1ccc(O[C@H]2CCCOC2)c(C2CCN([C@@H]3COC4(C3)CN(c3nnco3)C4)CC2)c1` (single isomer, unassigned) [Example 2R, (S)-7-(4-(5-fluoro-2-(((S)-tetrahydro-2H-pyran-3-yl)oxy)phenyl)piperidin-1-yl)-2-(1,3,4-oxadiazol-2-yl)-5-oxa-2-azaspiro[3.4]octane or (S)-7-(4-(5-fluoro-2-(((R)-tetrahydro-2H-pyran-3-yl)oxy)phenyl)piperidin-1-yl)-2-(1,3,4-oxadiazol-2-yl)-5-oxa-2-azaspiro[3.4]octane], in assay [1], the “M5 FDSS PA %” value is reported as 0% and the EC50 is above 25 µM. Also, in assay [2], the “M3 FDSS PA %” value is given as 0% and the EC50 is above 25 µM. In addition, in assay [3], the EC50 is 0.259 µM and the “M2 FDSS PA %” value is 42%.
As for `Fc1ccc(O[C@@H]2CCOC2)c(C2CCN([C@@H]3COC4(C3)CN(c3nnco3)C4)CC2)c1` [Example 1D, (S)-7-(4-(5-fluoro-2-(((R)-tetrahydrofuran-3-yl)oxy)phenyl)piperidin-1-yl)-2-(1,3,4-oxadiazol-2-yl)-5-oxa-2-azaspiro[3.4]octane], the Emax in assay [1] was determined as 0%; in assay [2] it was 0%; in assay [3], 50%. Also, the EC50 in assay [1] was above 25 µM; in assay [2] it was above 25 µM; in assay [3], 0.607 µM.
Consider `COCCOc1ccc(F)cc1C1CCN([C@@H]2COC3(C2)CN(c2ncco2)C3)CC1` [Example 4L, (S)-7-(4-(5-fluoro-2-(2-methoxyethoxy)phenyl)piperidin-1-yl)-2-(oxazol-2-yl)-5-oxa-2-azaspiro[3.4]octane], for which the Emax in assay [1], in assay [2] and in assay [3] was 0% throughout. Also, the EC50 in assay [1], in assay [2] and in assay [3] was above 25 µM throughout.
`CC(C)(O)[C@H]1C[C@H](Oc2ccc(F)cc2C2CCN([C@@H]3COC4(C3)CN(c3nnco3)C4)CC2)C1` (single isomer, unassigned) [Example 2W, 2-((1S,3r)-3-(2-(1-((S)-2-(1,3,4-oxadiazol-2-yl)-5-oxa-2-azaspiro[3.4]octan-7-yl)piperidin-4-yl)-4-fluorophenoxy)cyclobutyl)propan-2-ol or 2-((1R,3s)-3-(2-(1-((S)-2-(1,3,4-oxadiazol-2-yl)-5-oxa-2-azaspiro[3.4]octan-7-yl)piperidin-4-yl)-4-fluorophenoxy)cyclobutyl)propan-2-ol]: in assay [1], the “M5 FDSS PA %” value worked out at 0% and the EC50 was above 25 µM. Further, in assay [2], the “M3 FDSS PA %” value was 0% and the EC50 was above 25 µM. Also, in assay [3], the EC50 was found to be 3.08 µM and the “M2 FDSS PA %” value is on record as 29%.
Turning to `Fc1ccc(OC2CCOCC2)c(C2CCN([C@@H]3COC4(C3)CN(c3ncco3)C4)CC2)c1` [Example 4E, (S)-7-(4-(5-fluoro-2-((tetrahydro-2H-pyran-4-yl)oxy)phenyl)piperidin-1-yl)-2-(oxazol-2-yl)-5-oxa-2-azaspiro[3.4]octane], the Emax in assay [1], in assay [2] and in assay [3] was 0% throughout. Further, the EC50 in assay [1], in assay [2] and in assay [3] was above 25 µM in each case.
For the molecule `Fc1cc(O[C@@H]2CCOC2)c(C2CCN([C@@H]3COC4(C3)CN(c3nncs3)C4)CC2)cc1F` [Example 5M, (S)-7-(4-(4,5-difluoro-2-(((R)-tetrahydrofuran-3-yl)oxy)phenyl)piperidin-1-yl)-2-(1,3,4-thiadiazol-2-yl)-5-oxa-2-azaspiro[3.4]octane], the figures for the Emax in assay [1], in assay [2] and in assay [3] were 0%, 0% and 34%, respectively. Besides, the EC50 in assay [1] was above 25 µM; in assay [2], above 25 µM; in assay [3] it was 0.415 µM.

Values taken from patent US11485742B2, “2-azaspiro[3.4]octane derivatives as M4 agonists” (NOVARTIS AG, priority 2019, dated 2022).
